Measured values taken from PubChem BioAssay AID179 (DTP/NCI, 2004).
Active and inactive are the calls of the source.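 How the source made its calls: active means compounds giving half or more protection of infected cells from virus-caused growth loss, again on retest; inactive means the rest.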

Tested on: CEM cells HIV-1 protection, formazan growth assay
Assay: NCI AIDS Antiviral Assay
Conditions: for IC50: measured here: growth of uninfected CEM cells
In short: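 Steps: treat uninfected and HIV-1-infected human CEM cells at five drug levels; quantify growth by soluble formazan; retest any compound reaching 50% protection; classify actives from the retest.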

| SMILES | outcome | EC50 [µM] | IC50 [µM] |
| --- | --- | --- | --- |
| Cc1ccc(S(=O)(=O)N2C[C@H](O)C[C@H]2C(=O)O)cc1 | inactive | – | – |
| CC(C)(C)C1COP(=O)(C(C)(C)C)OC1 (stereo unspecified) | – | > 537 | 468 |
| Cc1c(NC(=O)OCc2ccccc2)no[n+]1[O-] | – | > 550 | 129 |
| COc1ccc(OC)c(N(CN2C(=O)CCC2C(=O)O)C(C)=O)c1 (stereo unspecified) | – | > 200 | > 200 |
| CC1=C(C#N)C(=N)OC1(C)C1CC(=O)C=CC1=O (stereo unspecified) | – | > 200 | 10.5 |
| COc1ccc([N+](=O)[O-])c(/C(C#N)=C/c2ccccc2)c1 | – | > 200 | 12.3 |
| CN1COc2c(n(C)c(=O)[nH]c2=O)C1 | – | > 200 | 120 |
| CCN1CCC(O)(/C=C/c2ccc(OC)cc2)C(C(=O)/C=C/c2ccc(OC)cc2)C1 (stereo unspecified) | – | > 479 | > 479 |
| CCCCCCCCCCCCC/C=C/[C@@H](OC(=O)c1ccccc1)C(CO)N=[N+]=[N-] (stereo partly specified) | inactive | – | – |
| Nc1ccc(/C=C/c2ccc3cccnc3c2)cc1 | – | 0.0631 | > 200 |
| O=C1c2cccc3cc([N+](=O)[O-])cc(c23)C(=O)N1CCCN1CCN(CCCNc2ccc3ncn4c5ccccc5c(=O)c2c34)CC1 | – | > 0.00501 | 0.0049 |
| O=C(O)CC(Cc1ccc2c(c1)OCO2)C(=O)O (stereo unspecified) | – | > 200 | > 200 |
| C/C(=N/O)C1CC=C(S(=O)(=O)c2ccccc2)C1 (stereo unspecified) | inactive | – | – |
| O=c1c2ccccc2n2c(-c3ccc(O)cc3)nnc2n1-c1ccccc1 | – | > 200 | > 100 |
| Nc1ccc(S(=O)(=O)S(=O)(=O)c2ccc(N)cc2)cc1 | – | > 200 | 112 |
| O=[N+]([O-])c1ccc2[nH]c(=S)n(/C=C(/c3ccc(Cl)cc3Cl)S(=O)(=O)Cc3ccc(Cl)cc3Cl)c2c1 | – | > 200 | 170 |
| Cc1cc(=O)oc2c(C)c3oc(CBr)c(Br)c3cc12 | – | > 200 | 2.24 |
| O=Cc1cn(CCCCCCCCn2cc(C=O)c3ccccc32)c2ccccc12 | – | > 200 | > 200 |
| N#CCCN(CCO)CCO | – | > 200 | > 200 |
| CCCNC(=S)NN1C2CSC1CS2 | – | > 178 | > 178 |
| CCCC/C=C(/C(O)[C@]1(C)OC(=O)N2CCC[C@H]21)[Si](C)(C)C (stereo partly specified) | – | > 759 | > 759 |
| NC(=O)C(=O)CC(=O)c1ccccc1NC1=CC(=O)C(=O)c2ccccc21 | – | > 20 | > 20 |
| C/C=C/C=C/c1nc(C#N)c(N)o1 | – | > 200 | 85.1 |

| SMILES | outcome | EC50 [µM] | IC50 [µM] |
| --- | --- | --- | --- |
| CC(C)(C)C(=O)[O-].N.N.N.N.N.[Co+3].[O-][Cl+3]([O-])([O-])[O-] | inactive | – | – |
| CC1(C)CNC(=O)C(C)(C2(C)NC(C)(C)CNC2=O)N1 (stereo unspecified) | – | > 200 | > 200 |
| CCOP(=O)(OCC)/C(C#N)=C/c1ccccc1 | – | > 676 | > 676 |
| CCOc1ccccc1NC(=O)CCC(=O)NN | – | > 145 | > 145 |
| COCN1CCC2N(COC)CCC3N(COC)CCC1N23 (stereo unspecified) | inactive | – | – |
| O=P(O)(O)CN1CCNCCN(CP(=O)(O)O)CCNCC1 | – | > 200 | 10 |
| [N-]=[N+]=C1C(=O)NC(=O)N2C3OC(CO[C@@H]12)C(O)C3O (stereo partly specified) | – | > 200 | > 200 |
| CCOC(=O)C(=O)/C(=C/n1c(=S)[nH]c2ccc([N+](=O)[O-])cc21)C(=O)OCC | – | > 200 | 77.6 |
| COC(=O)C[C@](O)(CCCC(C)(C)O)C(=O)O[C@@H]1C(OC)=C[C@]23CCCN2CCc2cc4c(cc2[C@H]13)OCO4 | – | > 2.29 | 0.0138 |
| CCCCOC(=O)CCC(Nc1nc(Cl)nc(Cl)n1)C(=O)OCCCC (stereo unspecified) | – | > 200 | > 200 |
| CC1=C(C(=O)Nc2cccc(C(F)(F)F)c2)C(c2ccc(O)cc2)C(C(=O)Nc2cccc(C(F)(F)F)c2)=C(C)N1 | – | > 32.4 | > 32.4 |
| COc1cc2c(cc1O)[C@H]1COc3ccccc3[C@H]1O2 | – | > 93.3 | 4.9 |
| CCOC(=O)c1nc2ccc(OC)cc2c2c1Cc1ccccc1-2 | – | > 22.4 | > 22.4 |
| CCCCC[C@@H]1OC(=O)/C(=C2/CC[C@@H](CCCC)O2)C(=O)[C@@H]1O | inactive | – | – |
| CCOC(=O)C(Cl)C1(O)Cc2cccc3cccc1c23 (stereo unspecified) | – | > 200 | 110 |
| Cc1sc(/N=C/C2=C(O)CC(C)(C)CC2=O)nc1-c1ccccc1 | – | > 200 | 64.6 |
| Cc1cc(=O)n(/C=C/C(=O)O)c2ccccc12 | – | > 200 | > 200 |
| CC(=O)/C(=C\c1ccco1)C(=O)Nc1ccccc1 | – | > 74.1 | > 74.1 |
| O=C1C2CCC(N1CCc1ccccc1)n1c(=O)n(-c3ccccc3)c(=O)n12 (stereo unspecified) | – | > 200 | > 200 |
| CCOC(=O)[C@@H]1CCN2CN(c3ccc(OC)cc3)N=C(c3ccccc3)[C@@]12c1ccccc1 | – | > 200 | 18.2 |
| O=C1/C(=C/c2ccc(Br)s2)NC(=S)N1CN1CCOCC1 | – | > 200 | 36.3 |
| Cc1cc2c3ccccc3nc2c2cc[nH]c(C)c12 | – | > 110 | 5.25 |
| COc1cc2cc3c4c(cc(OC)c(OC)c4c2cc1OC)CCN3C(=O)CCCC(=O)O | – | > 200 | 110 |
